Marks after values point to notes of the source that are not given here.
Key:
[1] = tested on: db/db mice (diabetic mouse model); assay: Separate db/db diabetic mouse study, q2d*15 up to day 28, recovery period day 29 to day 45; assay type: in vivo
Description: The study was performed in similar manner as above on diabetic mouse model. The animals were divided into three treatment groups—a diabetic control group, a test group and a semaglutide treatment group. The representative compounds of the present disclosure, Compound 1, Compound 13 and Compound 16, were injected subcutaneously at 3.04 or 6.078 nM dose (every alternate day up to day 28 (q2d*15). The same dosage regimen was administered in semaglutide treatment group. Measurements of blood glucose levels and body weight were done daily. % HbA1c, Insulin was measured on Day 0, day 14 and day 29. Cumulative food intake and body weight change was calculated on day 14 and 29. % HbA1c, Insulin data was analyzed by two way ANOVA followed by Bonferroni's posttests using PRISM (Graph Pad version 5.03). Whereas Blood Glucose AUC, Body weight change and Cumulative food intake data was analyzed by one way ANOVA followed by Bonferroni's posttests using PRISM (Graph Pad version 5.03). From day 29 to day 45, animals were kept on recovery period during which no drug treatment was given. Blood Glucose and Body weight was measured during this period. On day 45, Body weight Changes, % HbA1c, Insulin was measured.

[2] = Food intake and body weight recorded in the rat OGTT study; assay type: in vivo, rats; settings: for Body Weight Change (%) Mean / Food Consumption (g) Mean: Exp. 1
Description: (§1) Animals were divided into three groups—a normal control group, a test group and a third semaglutide group, with 4 animals in each group. The animals were fasted for 12 hours before initiation of OGTT. To the test group animals, the Compound 1 was injected subcutaneously at 1 mg/kg dose. To the semaglutide group, a dose of 1 mg/kg was injected subcutaneously. After 22 hrs, 166 hrs and 334 hrs of subcutaneous injection of test drug or semaglutide, blood glucose was measured with blood glucose meter (time 0 measurements). All the animals were then given 2 g/kg of glucose solution orally. Blood glucose was measured at 20, 40, 60, 90 and 120 minutes following glucose challenge. Body weight and food intake was recorded. Blood glucose data was analyzed using Two way ANOVA followed by Bonferroni posttests using PRISM (Graph Pad version 5.03). Data of Blood glucose AUC0-120 min, was analyzed using t test.
as §1, with “animals,” for “animals, the”, “1, Compound 13 and Compound 16 were” for “1 was”, “compound” for “drug”

[3] = tested on: db/db type 2 diabetic mice; assay: Reduction of HbA1c in db/db type 2 diabetic mice after chronic treatment (27 day study); assay type: in vivo
Description: This study was done in diabetic mouse model. The animals were divided into three treatment groups—a diabetic control group, a test group and a semaglutide treatment group. Compound 1 of the present disclosure was injected subcutaneously at 0.3 mg/kg dose once a day for 3 days (qd*3) followed by 0.1 mg/kg dose every alternate day for 7 doses (q2d*7) followed by 0.1 mg/kg dose once every four days for two dose cycles (q4d*2). The same dosage regimen was administered in semaglutide treatment group. Measurements of blood glucose levels and body weight were done daily. % HbA1c was measured on Day 0, day 7, day 14 and day 27 by column chromatography. Cumulative food intake was calculated on day 27. % HbA1C data was analyzed by two way ANOVA followed by Bonferroni's posttests using PRISM (Graph Pad version 5.03).

SD rats = assay: Oral glucose tolerance test (OGTT) in rats; single injection; 1 mg/kg; assay type: in vivo; design: Change in AUC (mg/dL*min): unit not given here; settings: for Blood Glucose AUC (mg/dL*min) Mean / Change in AUC (mg/dL*min): 1 mg/Kg; for Blood Glucose AUC (mg/dL*min) Mean: Exp. 1; for Change in AUC (mg/dL*min): Exp. 1, vs control group
Description: as §1
as §1, with “animals,” for “animals, the”, “1, Compound 13 and Compound 16 were” for “1 was”, “compound” for “drug”

[4] = recovery period, earlier dose 6.078 nM
[5] = recovery study, day 45, earlier dose 6.078 nM (6.0788 nM given for Compound 13)
[6] = rats, 1 mg/kg s.c. single injection, Day 2
[7] = rats, 1 mg/kg s.c. single injection, Day 4

**Q.** For “N-ε^26-[2-(2-[2-(2-[2-(2-[4-(17-Carboxyheptadecanoylamino)-4(S)carboxybutyrylamino]ethoxy) ethoxy]acetylamino)ethoxy]ethoxy)acetyl][(Aib^8, Arg^34, Leu^38 GLP-1(7-38) peptide (HXXXGTFTSDVSSYLXGQAAXEFXAWLVRGRGXX; C18 diacid-gGlu-OEG-OEG on Lys26; Aib8; (2)..(2) Xaa = Aib; (3)..(3) Xaa = absent.; (4)..(4) Xaa = Glu.; (16)..(16) Xaa = Glu.; (21)..(21) Lys is substituted; (24)..(24) Xaa is Ile.; (33)..(33) Xaa is Leu.; (34)..(34) Xaa is absent.) [Compound 1]”, which “Blood Glucose AUC (Day 0-29) % Change Vs Control” value ([1]; 6.078 nM, q2d*15) is on record?
**A.** −45.75%

**Q.** And the “Blood Glucose AUC (Day 0-29) (mg/dL*days) Mean” value ([1]; 6.078 nM, q2d*15)?
**A.** 9194.6*** mg/dL*days

**Q.** And the “Body Weight Change Day 29, % Change vs Day 0 Mean” value ([1]; 6.078 nM, q2d*15)?
**A.** −0.3%

**Q.** What about the “Cumulative Food Intake (g) Day 0-29 Mean” value ([1]; 6.078 nM, q2d*15) of the same substance?
**A.** 79.8 g

**Q.** And the “% HbA1C Mean” value ([1]; Day 0, 6.078 nM, q2d*15)?
**A.** 7.8%

**Q.** What about the “Insulin (ng/mL) Mean” value ([1]; Day 0, 6.078 nM, q2d*15) of the same substance?
**A.** 18.0 ng/mL

**Q.** And the “% HbA1C Mean” value ([1]; Day 14, 6.078 nM, q2d*15)?
**A.** 6.4 ** %

**Q.** What about the “Insulin (ng/mL) Mean” value ([1]; Day 14, 6.078 nM, q2d*15) of the same substance?
**A.** 58.1** ng/mL

**Q.** And the “% HbA1C Mean” value ([1]; Day 29, 6.078 nM, q2d*15)?
**A.** 6.2 *** %

**Q.** What about the “Insulin (ng/mL) Mean” value ([1]; Day 29, 6.078 nM, q2d*15) of the same substance?
**A.** 54.7** ng/mL

**Q.** What about the “HbA1c, blood glucose, food consumption and body weight vs control” value ([1]; about 3 nM and 6 nM dose) of the same substance?
**A.** significant reduction

**Q.** And the “Blood Glucose AUC (Day 30-37) % Change vs Control” value [1, 4]?
**A.** −22.39%

**Q.** And the “Blood Glucose AUC (Day 30-37) (mg/dL*days) Mean” value [1, 4]?
**A.** 2787.3* mg/dL*days

**Q.** And the “Blood Glucose AUC (Day 38-45) % Change vs Control” value [1, 4]?
**A.** −7.39%

**Q.** And the “Blood Glucose AUC (Day 38-45) (mg/dL*days) Mean” value [1, 4]?
**A.** 3335.7 mg·days/dL

**Q.** And the “% HbA1C Mean” value [1, 5]?
**A.** 7.6%

**Q.** What about the “Delta HbA1C vs. DC” value [1, 5] of the same substance?
**A.** −0.9

**Q.** And the “Insulin (ng/mL) Mean” value [1, 5]?
**A.** 30.9 ng/mL

**Q.** What about the “Body Weight % Change vs Day 45 Mean” value ([1]; recovery study, earlier dose 6.078 nM (6.0788 nM given for Compound 13)) of the same substance?
**A.** 5.9%

**Q.** What about the “Body Weight Change (%) Mean” value ([2]; 1 mg/Kg, 48 h) of the same substance?
**A.** −9.8%

**Q.** And the “Food Consumption (g) Mean” value ([2]; 1 mg/Kg, 48 h)?
**A.** 8.3 g

**Q.** What about the “Body Weight Change (%) Mean” value ([2]; 1 mg/Kg, 154 h) of the same substance?
**A.** 5.2%

**Q.** And the “Food Consumption (g) Mean” value ([2]; 1 mg/Kg, 154 h)?
**A.** 69.6 g

**Q.** And the “Body Weight Change (%) Mean” value ([2]; 1 mg/Kg, 324 h)?
**A.** 9.3%

**Q.** What about the “Food Consumption (g) Mean” value ([2]; 1 mg/Kg, 324 h) of the same substance?
**A.** 99.4 g

**Q.** What about the “food consumed vs animals administered with semaglutide” value ([2]; 1 mg/Kg, text on Table 8) of the same substance?
**A.** consumed significantly less food

**Q.** What about the “Body Weight (Day 2) % Change vs Baseline” value [2, 6] of the same substance?
**A.** −9.33%

**Q.** What about the “Body Weight (g) (Day 2) Mean” value [2, 6] of the same substance?
**A.** 365.6 g

**Q.** What about the “Body Weight (Day 4) % Change vs Baseline” value [2, 7] of the same substance?
**A.** −7.5%

**Q.** And the “Body Weight (g) (Day 4) Mean” value [2, 7]?
**A.** 436.2* g

**Q.** What about the “Food Consumption (g) (day 0 to day 2) Mean” value ([2]; rats, 1 mg/kg s.c. single injection, day 0 to day 2) of the same substance?
**A.** 2.63*** g

**Q.** What about the “Food Consumption (g) (day 0 to day 4) Mean” value ([2]; rats, 1 mg/kg s.c. single injection, day 0 to day 4) of the same substance?
**A.** 43.25***^,## g

**Q.** And the “cumulative food intake vs diabetic control group” value ([3]; db/db mice, 0 to 27th day (FIG. 8))?
**A.** significant reduction in food intake

**Q.** What about the “% HbA1c Mean” value ([3]; db/db mice, Day 0 (before treatment)) of the same substance?
**A.** 4.87%

**Q.** What about the “% HbA1c % Change vs DC” value ([3]; db/db mice, Day 27, vs Diabetic Control) of the same substance?
**A.** −3.57%

**Q.** And the “% HbA1c Mean” value ([3]; db/db mice, Day 27, s.c. 0.3 mg/kg qd*3, 0.1 mg/kg q2d*7, 0.1 mg/kg q4d*2)?
**A.** 3.73***^## %

**Q.** And the “blood glucose levels vs diabetic control group” value ([3]; db/db mice, chronic treatment (FIG. 7))?
**A.** statistically significant reduction in blood glucose levels

**Q.** What about the “% change in body weight” value ([3]; db/db mice, day 0 to day 27 (FIG. 9)) of the same substance?
**A.** −16%

**Q.** And the “blood glucose effect vs semaglutide treatment group” value ([3]; db/db mice, latter phase of the study (FIG. 7))?
**A.** superior to semaglutide treatment group in latter phase of the study

**Q.** What about the “HbA1c level after chronic treatment” value ([3]; db/db type 2 diabetic mice, 27 day study) of the same substance?
**A.** statistically significant reduction in HbA1c level

**Q.** And the “Blood Glucose AUC (mg/dL*min) Mean” value (SD rats; OGTT, 22 hr)?
**A.** 3173.0 mg·min/dL

**Q.** What about the “Change in AUC (mg/dL*min)” value (SD rats; OGTT, 22 hr) of the same substance?
**A.** −78.7

**Q.** What about the “Blood Glucose AUC (mg/dL*min) Mean” value (SD rats; OGTT, 168 hr) of the same substance?
**A.** 5941.0 mg·min/dL

**Q.** What about the “Change in AUC (mg/dL*min)” value (SD rats; OGTT, 168 hr) of the same substance?
**A.** −65.4

**Q.** What about the “Blood Glucose AUC (mg/dL*min) Mean” value (SD rats; OGTT, 336 hr) of the same substance?
**A.** 11920.0 mg·min/dL

**Q.** And the “Change in AUC (mg/dL*min)” value (SD rats; OGTT, 336 hr)?
**A.** −28.3

**Q.** And the “blood glucose level vs normal control” value (SD rats; OGTT, 22 hours after single dosing, 1 mg/kg s.c. (FIG. 6A))?
**A.** statistically significant reduction in blood glucose level

**Q.** And the “glucose lowering effect vs semaglutide” value (SD rats; OGTT, after 22 hrs, 1 mg/kg s.c. (FIG. 6A))?
**A.** superior to the glucose lowering effect observed with semaglutide

**Q.** And the “glucose lowering effect vs semaglutide” value (SD rats; OGTT, after 46 hours of subcutaneous administration (FIG. 6B))?
**A.** superiority of glucose lowering effect

**Q.** And the “reduction in blood glucose AUC” value (SD rats; after 168 hrs of injection, 1 mg/kg)?
**A.** about 60%

From patent US11447535B2, “GLP-1 analogues” (Sun Pharmaceutical Industries Limited, priority 2018, dated 2022)
